Source: ChEMBL document CHEMBL5727881, “Pyridone amides as modulators of sodium channels” (2020)

Assay: Electrophysiology Assay: Patch clamp electrophysiology was used to assess the efficacy and selectivity of sodium channel blockers in dorsal root ganglion neurons. Rat neurons were isolated from the dorsal root ganglions and maintained in culture for 2 to 10 days in the presence of NGF (50 ng/ml) (culture media consisted of NeurobasalA supplemented with B27, glutamine and antibiotics). Small diameter neurons (nociceptors, 8-12 μm in diameter) were visually identified and probed with fine tip glass electrodes connected to an amplifier (Axon Instruments). The “voltage clamp” mode was used to assess the compound's IC50 holding the cells at −60 mV. In addition, the “current clamp” mode was employed to test the efficacy of the compounds in blocking action potential generation in response to current injections. The results of these experiments contributed to the definition of the efficacy profile of the compounds.
In the case of `O=C(Nc1ccn(CCO)c(=O)c1)c1ccc(C(F)(F)F)cc1Oc1ccc(F)cc1`, the IC50 is reported as 2800 nM.
`COc1cc(Oc2cc(C(F)(F)F)ccc2C(=O)Nc2cc[nH]c(=O)c2)ccc1F` gave an IC50 of 26 nM.
Compound `COc1cc(C)ccc1Oc1ccc(OC(F)(F)F)cc1C(=O)Nc1cc[nH]c(=O)c1` has an IC50 of 68 nM.
For `O=C(Nc1cc[nH]c(=O)c1)c1ccc(C(F)(F)F)cc1O[C@@H]1CC2CCC1C2` (stereo not given in full), the IC50 was 765 nM.
`COc1ccc(Oc2ccc(F)cc2C(=O)Nc2cc[nH]c(=O)c2)c(C)c1` showed an IC50 of 330 nM.
